Series [1] in a line: Pharmacokinetic profiles in rats. The following applies: for Cl/F / AUC(0-t) / half-life / Vd: iv dosing 1 mg/kg; for F: oral vs iv (iv 1 mg/kg; p.o. generally 5 or 10 mg/kg); for AUC(0-t) / half-life / Vd: rat, plasma; for Vd: read-out: Vss. The format is in vivo, rat. How it is done:
The compounds disclosed herein are assessed in pharmacokinetic studies in mice, rats, dogs or monkeys. The compounds are administered as a water solution, 2% HPMC+1% TWEEN®80 in water solution, 5% DMSO+5% solutol in saline, 4% MC suspension or capsule. For the intravenous administration, the animals are generally given at 1 or 2 mg/kg dose. For the oral (p.o.) dosing, mice and rats are generally given 5 or 10 mg/kg dose, and dogs and monkeys are generally given 10 mg/kg dose. The blood samples (0.3 mL) are drawn at 0.25, 0.5, 1.0, 2.0, 3.0, 4.0, 6.0, 8.0, 12 and 24 h time points or 0.083, 0.25, 0.5, 1.0, 2.0, 4.0, 6.0, 8.0 and 24 h time points and centrifuged at 3,000 or 4000 rpm for 2 to 10 min. The plasma solutions are collected, stored at −20° C. or −70° C. until analyzed by LC/MS/MS as described above.

A short description of series [2]: Compound stability in human liver microsomes. The format is in vitro ADME. To be noted: pH 7.4; for CLint scaled at 5 μM: liver microsomes, in vivo CLint extrapolated from human liver microsome incubation; for half-life at 5 μM: human liver microsomes 0.5 mg protein/mL, compound 5 μM, NADPH 1.0 mM, 37° C., read-out: Human T1/2. How it is done: (§1) The LC/MS/MS system used in the analysis consists of an Agilent 1200 Series vacuum degasser, binary pump, well-plate autosampler, thermostatted column compartment, the Agilent G6430 Triple Quadrupole Mass Spectrometer with an electrosprayionization (ESI) source. Quantitative analysis was carried out using MRM mode. The parameters for MRM transitions are in the Table A.
(§2) An Agilent XDB-C18, 2.1×30 mm, […] column was used for the analysis. 5 μL of the samples were injected. Analysis condition: The mobile phase was 0.1% formic acid in water (A) and 0.1% formic acid in methanol (B). The flow rate was 0.4 mL/min. And the gradient of Mobile phase was in the Table B.
(§3) Alternatively, an Agilent 6330 series LC/MS/MS spectrometer equipped with G1312A binary pumps, a G1367A autosampler and a G1314C UV detector were used in the analysis. An ESI source was used on the LC/MS/MS spectrometer. The analysis was done in positive ion mode as appropriate and the MRM transition for each analyte was optimized using standard solution. A Capcell MP-C18 100×4.6 mm I.D., […] column (Phenomenex, Torrance, Calif., USA) was used during the analysis. The mobile phase was 5 mM ammonia acetate, 0.1% MeOH in water (A): 5 mM ammonia acetate, 0.1% MeOH in acetonitrile (B) (70:30, v/v). The flow rate was 0.6 mL/min. Column was maintained at ambient temperature. 20 μL of the samples were injected.
(§4) Human or rat liver microsomes incubations were conducted in duplicate in polypropylene tubes. The typical incubation mixtures consisted of human or rat liver microsomes (0.5 mg protein/mL), compounds of interest (5 μM) and NADPH (1.0 mM) in a total volume of 200 μL potassium phosphate buffer (PBS, 100 mM, pH 7.4). Compounds were dissolved in DMSO and diluted with PBS such that the final concentration of DMSO was 0.05%. The enzymatic reactions were commenced with the addition of protein after a 3-min preincubation and incubated in a water bath open to the air at 37° C. Reactions were terminated at various time points (0, 5, 10, 15, 30, 60 min) by adding equal volume of ice-cold acetonitrile. The samples were stored at −80° C. until LC/MS/MS assays.
(§5) The concentrations of compounds in the incubation mixtures of human or rat liver microsomes were determined by a LC/MS/MS method. The ranges of the linearity in the concentration range were determined for each tested compounds.
(§6) A parallel incubation was performed using denatured microsomes as the negative control, and reactions were terminated at various time points (0, 15, 60 min) after incubation at 37° C.
(§7) Dextromethorphan (70 μM) was selected as the positive control, and reactions were terminated at various time points (0, 5, 10, 15, 30, 60 min) after incubation at 37° C. Both positive and negative control samples were included in each assay to ensure the integrity of the microsomal incubation system.
(§8) The concentrations of compounds in human or rat liver microsome incubations were plotted as a percentage of the relevant zero time point control for each reaction. The in vivo CLint were extrapolated (ref.: Naritomi, Y.; Terashita, S.; Kimura, S.; Suzuki, A.; Kagayama, A.; and Sugiyama, Y.; Prediction of human hepatic clearance from in vivo animal experiments and in vitro metabolic studies with liver microsomes from animals and humans. Drug Metab. Dispos., 2001, 29: 1316-1324).

A further series concerns the target PI3K (p110δ/p85α) (h) (Homo sapiens (Human), UniProt O00329). As to the kind of experiment: PI3K (p110δ/p85α) (h) non-radioactive HTRF kinase assay. The following applies: performed at Millipore UK Ltd. The format is biochemical. On the procedure: The above assay procedure can be used to determine the IC50 for inhibition and/or the inhibition constant, Ki.
PI3K (p110δ/p85α) (h) [Non-Radioactive Assay]
PI3K (p110δ/p85α) (h) is incubated in assay buffer containing 10 μM phosphatidylinositol-4, 5-bisphosphate and MgATP (concentration as required). The reaction is initiated by the addition of the MgATP mix. After incubation for 30 minutes at room temperature, the reaction is stopped by the addition of stop solution containing EDTA and biotinylated phosphatidylinositol-3,4,5-trisphosphate. Finally, detection buffer is added, which contains europium-labelled anti-GST monoclonal antibody, GST-tagged GRP1 PH domain and streptavidin-allophycocyanin. The plate is then read in timeresolved fluorescence mode and the homogenous time-resolved fluorescence (HTRF) signal is determined according to the formula HTRF=10000×(Em665 nm/Em620 nm).
The kinase assays described herein were performed at Millipore UK Ltd, Dundee Technology Park, Dundee DD2 1SW, UK.

The nature of series [3]: Compound stability in rat liver microsomes. The format is in vitro ADME. The following applies: pH 7.4; for CLint scaled at 5 μM: liver microsomes, in vivo CLint extrapolated from rat liver microsome incubation; for half-life at 5 μM: rat liver microsomes 0.5 mg protein/mL, compound 5 μM, NADPH 1.0 mM, 37° C., read-out: Rat T1/2. On the procedure: as §1, §2, §3, §4, §5, §6, §7, §8

PI3K (p110δ/p85α) (h), sequence (O00329 whole entry): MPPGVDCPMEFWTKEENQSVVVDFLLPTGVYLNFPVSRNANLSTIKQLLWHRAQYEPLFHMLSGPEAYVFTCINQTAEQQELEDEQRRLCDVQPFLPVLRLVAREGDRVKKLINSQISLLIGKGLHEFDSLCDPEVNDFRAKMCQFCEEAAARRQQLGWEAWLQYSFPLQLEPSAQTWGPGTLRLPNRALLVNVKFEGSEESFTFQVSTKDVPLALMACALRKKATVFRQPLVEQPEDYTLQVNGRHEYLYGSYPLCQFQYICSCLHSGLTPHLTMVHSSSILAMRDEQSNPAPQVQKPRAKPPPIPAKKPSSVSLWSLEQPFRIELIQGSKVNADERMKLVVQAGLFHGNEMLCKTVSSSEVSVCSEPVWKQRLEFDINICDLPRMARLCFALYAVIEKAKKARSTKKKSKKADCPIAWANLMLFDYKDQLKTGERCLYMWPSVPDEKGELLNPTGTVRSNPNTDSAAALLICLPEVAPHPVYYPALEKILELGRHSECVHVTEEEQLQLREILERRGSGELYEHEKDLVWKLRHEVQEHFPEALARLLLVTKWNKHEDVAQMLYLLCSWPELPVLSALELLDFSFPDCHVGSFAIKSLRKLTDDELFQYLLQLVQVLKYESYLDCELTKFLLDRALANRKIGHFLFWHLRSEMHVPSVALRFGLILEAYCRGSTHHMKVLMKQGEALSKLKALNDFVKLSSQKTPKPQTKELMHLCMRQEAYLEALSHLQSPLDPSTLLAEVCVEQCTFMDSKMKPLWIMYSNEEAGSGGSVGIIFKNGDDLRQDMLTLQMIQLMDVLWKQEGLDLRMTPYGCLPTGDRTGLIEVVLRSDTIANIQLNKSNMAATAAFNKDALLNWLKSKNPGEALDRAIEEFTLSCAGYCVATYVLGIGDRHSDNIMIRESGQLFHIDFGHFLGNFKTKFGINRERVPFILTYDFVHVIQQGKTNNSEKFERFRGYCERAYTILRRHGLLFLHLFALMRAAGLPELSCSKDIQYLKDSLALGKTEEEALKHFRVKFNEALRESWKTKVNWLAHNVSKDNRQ
PI3K (p110δ/p85α) (h), sequence (P27986 whole entry partner): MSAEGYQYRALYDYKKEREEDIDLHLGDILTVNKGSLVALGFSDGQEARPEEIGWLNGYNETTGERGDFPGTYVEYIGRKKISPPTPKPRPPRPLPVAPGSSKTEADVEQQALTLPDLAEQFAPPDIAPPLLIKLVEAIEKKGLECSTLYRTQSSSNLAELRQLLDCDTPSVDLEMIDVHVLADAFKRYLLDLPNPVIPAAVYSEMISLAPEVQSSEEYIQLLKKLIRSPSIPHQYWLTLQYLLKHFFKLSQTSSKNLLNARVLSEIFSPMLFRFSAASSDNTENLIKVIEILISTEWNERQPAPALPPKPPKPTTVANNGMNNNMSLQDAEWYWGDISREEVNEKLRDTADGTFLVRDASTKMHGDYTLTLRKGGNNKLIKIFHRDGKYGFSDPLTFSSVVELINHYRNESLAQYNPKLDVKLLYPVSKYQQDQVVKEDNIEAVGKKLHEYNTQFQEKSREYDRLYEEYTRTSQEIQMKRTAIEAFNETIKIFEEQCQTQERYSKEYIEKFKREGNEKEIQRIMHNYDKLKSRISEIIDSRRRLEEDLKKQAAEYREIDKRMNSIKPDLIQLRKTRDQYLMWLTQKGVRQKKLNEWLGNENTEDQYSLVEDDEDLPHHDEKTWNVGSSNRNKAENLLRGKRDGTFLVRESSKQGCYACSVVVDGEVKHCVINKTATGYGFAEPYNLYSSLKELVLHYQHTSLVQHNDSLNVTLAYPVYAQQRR

With `CC[C@H](Nc1ncnc(N)c1-c1nc(C)no1)c1cc2cccc(C)c2c(=O)n1-c1ccccc1` [Ex. 2, (S)-3-(1-((6-amino-5-(3-methyl-1,2,4-oxadiazol-5-yl)pyrimidin-4-yl)amino)propyl)-8-methyl-2-phenylisoquinolin-1(2H)-one], in series [1], the Cl/F amounted to 79 mL/min/kg, the F amounted to 46.57%, the area under the curve AUC(0-t) amounted to 215 ng·h/mL and the half-life was 69.6 min. For the same compound, the Vd in series [1] is 4.42 L/kg. In series [2], the CLint scaled at 5 μM was 840 mL/min/kg and the half-life at 5 μM was determined as 2.07 min. Further, the half-maximal inhibitory concentration (IC50) at PI3K (p110δ/p85α) (h) turned out to be 2 nM. In addition, in series [3], the CLint scaled at 5 μM was 418 mL/min/kg and the half-life at 5 μM was found to be 5.94 min.

On to `CC[C@H](Nc1ncnc(N)c1-c1nc(C)no1)c1cc2cccc(Cl)c2c(=O)n1C1CC1` [Ex. 7, (S)-3-(1-((6-amino-5-(3-methyl-1,2,4-oxadiazol-5-yl)pyrimidin-4-yl)amino)propyl)-8-chloro-2-ccyclopropylisoquinolin-1(2H)-one], for which, in series [1], the Cl/F was 54.3 mL/min/kg, the F amounted to 42.95%, the AUC(0-t) was determined as 307 ng·h/mL and the half-life is 138 min. Also, in series [1], the Vd came to 7.96 L/kg. In addition, in series [2], the CLint scaled at 5 μM was 147 mL/min/kg and the half-life at 5 μM turned out to be 11.8 min. Also, the IC50 on PI3K (p110δ/p85α) (h) turned out to be 4 nM. Also, in series [3], the CLint scaled at 5 μM was 250 mL/min/kg and the half-life at 5 μM was 9.92 min.

Turning to `C[C@H](Nc1ncnc(N)c1-c1ncn(C)n1)c1cc2cccc(Cl)c2c(=O)n1C1CC1` [Ex. 16, (S)-3-(1-((6-amino-5-(1-methyl-1H-1,2,4-triazol-3-yl)pyrimidin-4-yl)amino)ethyl)-8-chloro-2-cyclopropylisoquinolin-1(2H)-one], in series [1], the Cl/F was 89.3 mL/min/kg, the F was 11.44%, the AUC(0-t) turned out to be 186 ng·h/mL and the half-life is 36.6 min. Also, the Vd in series [1] was found to be 2.94 L/kg. In addition, in series [2], the CLint scaled at 5 μM was 219 mL/min/kg and the half-life at 5 μM was found to be 7.92 min. Moreover, the IC50 at PI3K (p110δ/p85α) (h) was determined as 190 nM. Further, in series [3], the intrinsic metabolic clearance (CLint scaled) at 5 μM is 173 mL/min/kg and the half-life at 5 μM came out at 14.3 min.

`C[C@H](Nc1ncnc(N)c1-c1nnn(C)n1)c1cc2cccc(Cl)c2c(=O)n1C1CC1` [Ex. 12, (S)-3-(1-((6-amino-5-(2-methyl-2H-tetrazol-5-yl)pyrimidin-4-yl)amino)ethyl)-8-chloro-2-cyclopropylisoquinolin-1(2H)-one]: in series [1], the Cl/F is 30 mL/min/kg, the F was determined as 32.09%, the AUC(0-t) stood at 555 ng·h/mL and the half-life was 42 min. Moreover, in series [1], the Vd was 1.42 L/kg. In addition, the concentration for half-maximal inhibition (IC50) at PI3K (p110δ/p85α) (h) was found to be 12 nM.

For the compound `CC[C@H](Nc1ncnc(N)c1-c1noc(C)n1)c1cc2cccc(-c3cnn(C)c3)c2c(=O)n1C1CC1` [Ex. 31, (S)-3-(1-((6-amino-5-(5-methyl-1,2,4-oxadiazol-3-yl)pyrimidin-4-yl)amino)propyl)-2-cyclopropyl-8-(1-methyl-1H-pyrazol-4-yl)isoquinolin-1(2H)-one], in series [1], the Cl/F stood at 17.3 mL/min/kg, the F came to 139.0%, the AUC(0-t) stood at 934 ng·h/mL and the half-life was 136 min. Further, the Vd in series [1] turned out to be 2.9 L/kg. Besides, in series [2], the CLint scaled at 5 μM was 18.9 mL/min/kg and the half-life at 5 μM turned out to be 92.2 min. In addition, in series [3], the CLint scaled at 5 μM is 26.1 mL/min/kg and the half-life at 5 μM was 95.2 min.

In the case of `CC[C@H](Nc1ncnc(N)c1-c1nnc(C)o1)c1cc2cccc(Cl)c2c(=O)n1C1CC1` [Ex. 10, S)-3-(1-((6-amino-5-(5-methyl-1,3,4-oxadiazol-2-yl)pyrimidin-4-yl)aminopropyl)-8-chloro-2-cyclopropylisoquinolin-1(2H)-one], in series [1], the Cl/F is 50 mL/min/kg, the F is given as 81.33%, the AUC(0-t) was determined as 333 ng·h/mL and the half-life is 86.4 min. For the same compound, the Vd in series [1] stood at 5.35 L/kg. Besides, in series [2], the CLint scaled at 5 μM is 86.9 mL/min/kg and the half-life at 5 μM came to 20 min. Besides, in series [3], the CLint scaled at 5 μM was 169 mL/min/kg and the half-life at 5 μM was 14.7 min.

With `CC[C@H](Nc1ncnc(N)c1-c1nnc(C)o1)c1cc2cccc(C)c2c(=O)n1C1CC1` [Ex. 6, (S)-3-(1-((6-amino-5-(5-methyl-1,3,4-oxadiazol-2-yl)pyrimidin-4-yl)amino)propyl)-2-cyclopropyl-8-methylisoquinolin-1(2H)-one], in series [1], the Cl/F turned out to be 62.3 mL/min/kg, the F turned out to be 48.66%, the AUC(0-t) was found to be 266 ng·h/mL and the half-life was 51.6 min. Moreover, the Vd in series [1] was 4.08 L/kg. Moreover, in series [2], the intrinsic clearance (CLint scaled) at 5 μM was 93.1 mL/min/kg and the half-life at 5 μM turned out to be 18.7 min. Besides, in series [3], the intrinsic metabolic clearance (CLint scaled) at 5 μM was 324 mL/min/kg and the half-life at 5 μM was found to be 7.66 min.

In series [1], `Cc1nc(-c2c(N)ncnc2N[C@@H](C)c2cc3cccc(-c4cnn(C)c4)c3c(=O)n2C2CC2)no1` [Ex. 34, (S)-3-(1-((6-amino-5-(5-methyl-1,2,4-oxadiazol-3-yl)pyrimidin-4-yl)amino)ethyl)-2-cyclopropyl-8-(1-methyl-1H-pyrazol-4-yl)isoquinolin-1 (2H)-one] had a Cl/F of 23.7 mL/min/kg, an F of 96.4%, an AUC(0-t) of 678 ng·h/mL and a half-life of 92.4 min. Besides, the Vd in series [1] amounted to 2.74 L/kg. Further, in series [2], the CLint scaled at 5 μM was 42.4 mL/min/kg and the half-life at 5 μM is 41 min. Also, in series [3], the CLint scaled at 5 μM was 29.9 mL/min/kg and the half-life at 5 μM was found to be 82.9 min.

A word on the AUC(0-t): it is exposure summed from dosing to a finite time, without extrapolation to infinity. What is called CLint scaled is the rate of metabolic loss divided by the concentration. One may read the IC50 as the midpoint of a concentration-inhibition curve.

The values are drawn from patent US9512114B2, “Substituted aminopyrimidine compounds and methods of use” (Calitor Sciences, LLC, priority 2013, dated 2016).
